In EP2982745A1, “Method for expanding immune cells” (Johann Wolfgang Goethe-Universität, Frankfurt am Main, priority 2014, dated 2016):

Key:
[1] = system: NKL cell line; test: Proliferation assay of NKL cell line (cell counts); type: cell-based; settings: IL-2/-15/SPV-106 (5µM); already after 3 days of culture; counted at 3, 6 and 10 days; n = 7; figure 1
Experimental: (§1) NKL cell line was grown in Iscove's Modified Dulbecco's Medium (IMDM-Lonza) supplemented with 20% fetal bovine serum and recombinant human interleukine 2 (IL-2, 100 U/ml). Proliferation assay was performed by culturing 2x10^5 NKL cells/ml (96 multiwell; Nunc Thermo Scientific) in 200 µl growth medium supplemented with IL-2 (100 U/ml); IL-2/-15 (10 ng/ml); or IL-2/-15/SPV-106 5µM. Cells were counted and culture medium was changed every three days. Primary NK cells were isolated from peripheral blood of healthy donors using different methods of NK cell isolation (such as Easy Sep Human NK Cell Enrichment Kit, Stem cell Technologies or Human NK Cell Negative Selection Kit, Miltenyi). Proliferation assay was performed by culturing 2x10^6 primary NK cells/ml (24 multiwell ) in 1 ml growth medium supplemented with IL-2 (100 U/ml)/IL-15 (10 ng/ml); or IL-2/-15/SPV-106 5µM. Cells were counted and culture medium was changed every three days. Average of relative cell counts was determined microscopically using Trypan blue staining to exclude death or damaged cells.
NKL cells were cultured in growth medium for 10 days in presence of IL-2, IL-2/-15, or IL-2/-15/SPV-106 (5µM). SPV-106 is the selective activator of histone acetylase PCAF. At 3, 6 and 10 days cells were counted. Average cell number (x 10^4) is shown in the graph of figure 1 (n = 7 at each time point). […]

[2] = system: Primary NK cells; test: Proliferation assay of primary NK cells (relative cell counts, Trypan blue); type: cell-based, human; settings: IL-2/-15/SPV-106 at 5 µM; after 10 days of culture; n = 3; figure 2
Experimental: as §1
Primary NK cells isolated from peripheral blood were cultured in growth medium for 10 days in presence of IL-2/-15, or IL-2/-15/SPV-106 (5µM). At 3, 6 and 10 days cells were counted. Average of relative cell counts in comparison of 100% at day 0 is shown in the graph of figure 2 (n = 3 at each time point).

[3] = system: Primary NK cells; test: NK cell subset distribution during expansion (flow cytometry); type: cell-based, human; settings: IL-2/-15/SPV-106 at 5µM; 3, 6 and 10 days; n = 3; figure 3
Experimental: as §1
Primary NK cells were cultured in growth medium for 10 days in presence of IL-2/-15, IL 2/-15, or IL-2/-15/ SPV-106 (at 5µM). At 3, 6 and 10 the NK cell subset distribution (CD56^high : CD56^dim) was analysed by flow cytometry. Average of the NK cell subset ratio is shown in the graph of figure 3 (n = 3 at each time point).

[4] = system: K562 target cells; test: Europium release cytotoxicity assay of expanded NK cells; type: cell-based, human; settings: NK cells expanded by cytokines and 5µM SPV-106; E/T ratios 2.5:1, 5:1, 10:1; 4 h; figure 4
Source text: Effector cells were generated prepared as described above. As target cells, K562, a human chronic myelogenous leukemia cell line, […], were maintained in culture in RPMI 1640 medium supplemented with 10% fetal bovine serum. The medium was changed three times a week, and the cells were in the log phase of growth when used as targets in cytotoxicity assays. About 5 x10^6 target cells were washed in saline to reduce extracellular Ca^+2 content. The cell pellet was resuspended in 1 ml of labeling buffer supplemented with […] Eu(DH3C00)^3+, 100 mM DTPA, and 0.5 mg of dextran sulfate. This cell suspension was incubated for 20 min at room temperature with occasional shaking. The labeling process was stopped by the addition of […] of 100 mM CaCl2 solution per ml. After 5 min of continued incubation, the cells were washed three times in 30 ml of repair buffer and then one to two times in 10 ml of medium and were finally resuspended in CM at a concentration of 5 x 10^4 cells/ml. […] The percentage of specific cytotoxicity was calculated as follows: ((experimental release (counts)-spontaneous release (counts)) : (maximal release (counts)-spontaneous release (counts)) x 100.
Killing activity of K562 target cells was assessed by Europium Assay as described in the following Material and Methods section.

## CCCCCCCCCCCCCCC=C(C(=O)OCC)C(=O)OCC [SPV-106]
[1]
  NKL cell line proliferation (average cell number): enhances NKL cell line proliferation
[2]
  primary NK cell proliferation (average of relative cell counts in comparison of 100% at day 0): enhances primary NK cell proliferation
[3]
  NK cell subset distribution (CD56^high : CD56^dim): did not change the naturally occurring NK subset distribution
[4]
  cytotoxic capacity (killing activity of K562 target cells): retained cytotoxic capacity
